Test results published in patent US7183459B2, “Dwf7 mutants” (The Arizona Board of Regents on Behalf of the University of …, priority 2000, dated 2007).
Like-named read-outs stand apart in the source and are kept apart here.

How the values were obtained:
[1] = tested on: Δ^7 sterol C-5 desaturase; conditions: enzyme prepared from maize microsomes; cited from earlier work
[2] = tested on: wild-type Arabidopsis seedlings; assay: Effects of compactin and MVA on growth of seedlings in liquid media; assay type: in vivo
[3] = tested on: dwf7-2; assay: Feeding of BR biosynthetic intermediates to dwf7-2 inflorescences; assay type: in vivo, Arabidopsis thaliana; conditions: for elongation of pedicels and internodes of dwf7-2: 3-week-old inflorescences of dwf7-2; for biochemical complementation of the dwf7-2 allele: in vivo
Experimental: (§1) Feeding experiments using biosynthetic intermediates were performed with 3-week-old mutant plants. The intermediates tested were diluted to the desired concentration with water containing 0.01% Tween 20. Two microliters of each brassinosteroid (BR) solution was applied daily to the shoot tips of plants by using a micro pipettman. After 1 week of treatment, total growth of inflorescence and pedicels was measured to the nearest millimeter (n=15).
A second allele of dwf7 was identified among 43 dwarf mutants isolated by screening >50,000 M2 seeds of an EMS mutant population.
(§2) Similarly, 3-week-old inflorescences of dwf7-2 were tested with 22-OHCR, 6-deoxoCT, teasterone, and BL.

[4] = tested on: dwf7-1 plants; assay: Feeding of BR biosynthetic intermediates to shoot tips of 3-week-old dwf7-1 plants; assay type: in vivo, Arabidopsis thaliana; conditions: for elongation of dwf7-1 pedicels in response to BRs: FIG. 4 legend, versus water, n>15
Experimental: as §1
To pinpoint the defective step in the BR biosynthetic pathway, dwf7-1 mutants were treated with BR biosynthetic intermediates. Due to undetectable bioactivity of some early intermediates (CR to 6-oxocampestanol) in bioassays (Fujioka et al. 1995; Choe et al. (1998) Plant Cell 10:231–243), these were not used. Instead, three biologically active compounds were chosen, 22-OHCR, 6-deoxoCT, and BL, for these feeding tests (see FIG. 1). Because the 22α-hydroxylation reaction is reported to be mediated by DWF4 (Choe et al. (1998) Plant Cell 10:231–243), biochemical complementation of dwf mutants other than dwf4 by 22-OHCR places the defective step upstream of CR.
as §2

[5] = tested on: dwf7-1 plants; assay: GA3 spray on 3-week-old dwf7-1 plants; assay type: in vivo, Arabidopsis thaliana; conditions: 0.1 mM GA3 sprayed
[6] = tested on: wild-type plants; assay: GA3 spray on wild-type plants; assay type: in vivo, Arabidopsis thaliana; conditions: 0.1 mM GA3 sprayed
Description: The overall morphology of plants is dependent on three factors: cell size, shape, and number (Cosgrove (1997) Plant Cell 9:1031–1041). Various signals modulate these factors. Environmental signals, such as water, temperature, and light, are transduced to invoke internal hormone signals, including auxins, gibberellins, and BRs. These signals then trigger the cell elongation process, including but not limited to cell wall loosening by xyloglucan endotransglycosylases and expansins. Thus, a block in any of the signal transduction cascades from the environmental signals to the cell elongation process could result in dwarfism. Mutants resistant to or deficient in classic hormones, such as auxin (e.g., auxin resistant2 [axr2]; Timpte (1992) Genetics 138:1239–1249) and gibberellin ([ga1 to ga5 and gai]; Koornneef and van der Veen (1980) Theor. Appl. Genet. 58:257-263; Koornneef et al. (1985) Physiol. Plant. 65:33–39), often result in dwarfism. Thus, we first tested whether dwf7 is either rescued by or resistant to exogenous application of these hormones. […] The reduction of hypocotyl length in dwf7-1 was rescued by the application of BL (FIG. 3). Both wild-type and dwf7-1 plants responded to BL, but dwf7-1 plants were hypersensitive. The length of dwf7-1 hypocotyls was increased 160% in response to 1 nM BL as compared with the untreated control, whereas the wild-type responded marginally (5%).

[7] = tested on: dwf7-1 hypocotyls
Experimental: (§3) Biochemical complementation of dwf7-1 plants with different concentrations of brassinolide (BL) was performed in liquid media. BL-supplemented (control, 10^−9, 10^−8, and 10^−7 M) sterile liquid media (1.5 mL) was dispensed into wells of a 24-well plate (Corning Co., Corning, N.Y.). Three seedlings, germinated on agar-solidified media, were transferred into each well. After a week of growth with continuous shaking (230 rpm), the seedlings were lightly stained with toluidine blue, and hypocotyls and roots were measured to the nearest millimeter.

[8] = tested on: Wassilewskija-2 (Ws-2) wild type hypocotyls
Experimental: as §3

In the case of `[C-]#[O+]` [carbon monoxide], the effect on enzyme [1] is given as “insensitive”.
In the case of `C[C@@](O)(CCO)CC(=O)O` [MVA, mevalonic acid], the “reversal of compactin growth inhibition” value ([2]; 4.5 mM MVA applied simultaneously with 10 μM compactin) is reported as “restored to the level of controls”.
In the case of `CC(C)[C@H](C)[C@@H](O)[C@H](O)[C@@H](C)[C@H]1CC[C@H]2[C@@H]3CC(=O)[C@H]4C[C@@H](O)CC[C@]4(C)[C@H]3CC[C@]12C` [teasterone], the “elongation of pedicels and internodes of dwf7-2” value (“elongation … of dwf7-2” below) [3] is reported as “significant elongation”.
With `CC(C)[C@H](C)C[C@H](O)[C@@H](C)[C@H]1CC[C@H]2[C@@H]3CC(=O)[C@H]4C[C@@H](O)CC[C@]4(C)[C@H]3CC[C@]12C` [cathasterone] the “biochemical complementation of the dwf7-2 allele” value [3] was “biochemically complemented”.
In the case of `CC(C)[C@H](C)C[C@H](O)[C@@H](C)[C@H]1CC[C@H]2[C@@H]3CC[C@H]4C[C@@H](O)CC[C@]4(C)[C@H]3CC[C@]12C` [6-deoxoCT], the “elongation of dwf7-1 pedicels in response to BRs” value (from here on “elongation of dwf7-1 pedicels”) [4] is reported as “greater than twofold” and the “elongation … of dwf7-2” value [3] is reported as “significant elongation”.
With `C=C1C[C@]23C[C@@]1(O)CC[C@H]2[C@@]12C=C[C@H](O)[C@@](C)(C(=O)O1)[C@H]2[C@@H]3C(=O)O` [GA3] the “rescue of the dwf7-1 phenotype” value [5] was “did not rescue”, the “increase of inflorescence height” value ([5]; 3-week-old dwf7-1 plants) was less than 10% and the “increase of inflorescence height” value [6] was less than 10%.
With `CC[C@H](C)C(=O)O[C@H]1CCC=C2C=C[C@H](C)[C@H](CC[C@@H]3C[C@@H](O)CC(=O)O3)[C@H]21` [compactin, mevastatin] the growth of seedlings ([2]; 10 μM compactin, liquid media) was “almost completely inhibited”.
In the case of `CC(C)[C@H](C)[C@@H](O)[C@H](O)[C@@H](C)[C@H]1CC[C@H]2[C@@H]3COC(=O)[C@H]4C[C@H](O)[C@H](O)C[C@]4(C)[C@H]3CC[C@]12C` [BL, brassinolide], the “elongation of dwf7-1 pedicels” value [4] is reported as “greater than twofold”, the “length of cells in dwf7-1 stem after BL treatment” value ([4]; daily application of 10^-7 M BL for 1 week) is reported as “converted to the length of the wild type” and the “growth of treated dwf7-1 pedicels relative to wild-type” value ([4]; in vivo) is reported as “greater than or equal to that of the wild-type”. The “elongation … of dwf7-2” value [3] was “significant elongation”, the “elongation of dwf7-1 hypocotyls (increase)” value ([7]; 1 nM BL, BL-supplemented liquid media, light-grown, compared with untreated control) was 160% and the “rescue of dwf7-1 hypocotyls to wild-type length” value ([7]; 10 nM (10^-8 M) BL) was “completely rescued”. The “rescue of dwf7-1 hypocotyls to wild-type length” value ([7]; 100 nM BL) was “completely rescued”, the “response of dwf7-1 hypocotyls to BL” value ([7]; 10^-9 M BL, light-grown (FIG. 3)) was “responds” and the wild-type hypocotyl increase ([8]; 1 nM BL, BL-supplemented liquid media, light-grown) was 5%. For the same molecule, the “BL concentration giving the strongest response of the wild type” value ([8]; hypocotyl length, liquid media (FIG. 3)) was 100 nM.
With `CC(C)[C@H](C)C[C@H](O)[C@@H](C)[C@H]1CC[C@H]2[C@@H]3CC=C4C[C@@H](O)CC[C@]4(C)[C@H]3CC[C@]12C` [22-OHCR, 22 α-hydroxycampesterol] the “elongation of dwf7-1 pedicels” value [4] was “greater than twofold”, the “growth of treated dwf7-1 pedicels relative to wild-type” value ([4]; in vivo) was “greater than or equal to that of the wild-type” and the “rescue of dwf7-1 by exogenous application” value ([4]; in vivo) was “Rescue”. For the same molecule, the “elongation … of dwf7-2” value [3] was “significant elongation” and the “biochemical complementation of the dwf7-2 allele” value [3] was “biochemically complemented”.
